In publication PMC7413254 (Nature Communications, 2020):

How the values were obtained:
Assay type in all cases: cell-based
PfCRT^Ecu1110 [1] = molecular target: T1, PfCRT^Ecu1110 (Plasmodium falciparum, UniProt Q9N623, A220S/I356L/K76T/N326D); assay: [3H]CQ uptake into Xenopus oocytes, cis-inhibition by unlabelled solute; details: for PfCRT-mediated [3H]CQ transport, cis-inhibition (% PfCRTEcu1110 control): PfCRTEcu1110 oocytes, background [3H]CQ accumulation subtracted, normalised to oocyte type control; for [3H]CQ transport (% PfCRTEcu1110 control), cis-inhibition, PfCRTEcu1110: PfCRT-mediated component (background subtracted), sheet title says normalised to PfCRTDd2 control, mean ± SEM, SEM
T1 sequence (Q9N623 whole entry A220S/I356L/K76T/N326D): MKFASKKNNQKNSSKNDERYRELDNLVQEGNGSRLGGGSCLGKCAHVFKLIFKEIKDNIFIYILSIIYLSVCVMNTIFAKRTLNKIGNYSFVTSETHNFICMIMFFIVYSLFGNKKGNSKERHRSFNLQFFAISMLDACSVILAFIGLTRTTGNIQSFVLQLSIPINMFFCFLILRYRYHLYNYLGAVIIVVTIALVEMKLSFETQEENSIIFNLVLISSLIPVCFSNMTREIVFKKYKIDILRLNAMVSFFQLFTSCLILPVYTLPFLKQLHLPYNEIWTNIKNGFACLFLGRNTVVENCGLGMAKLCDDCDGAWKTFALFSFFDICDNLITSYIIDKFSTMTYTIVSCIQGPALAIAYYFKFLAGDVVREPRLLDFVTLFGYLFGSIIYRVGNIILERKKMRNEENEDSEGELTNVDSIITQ
Summary of the method: (§1)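 Using pH 5.5 ND96 at 27.5 °C, uptake is followed for 1.5 h, stopped with ice-cold buffer, and quantified as accumulated radioactivity per oocyte after SDS lysis.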

PfCRT^Dd2 [2] = molecular target: T2, PfCRT^Dd2 (Plasmodium falciparum, UniProt Q9N623, A220S/I356T/K76T/M74I/N326S/N75E/Q271E/R371I); assay: as above; details: PfCRTDd2 oocytes, background [3H]CQ accumulation subtracted, normalised to oocyte type control
T2 sequence (Q9N623 whole entry A220S/I356T/K76T/M74I/N326S/N75E/Q271E/R371I): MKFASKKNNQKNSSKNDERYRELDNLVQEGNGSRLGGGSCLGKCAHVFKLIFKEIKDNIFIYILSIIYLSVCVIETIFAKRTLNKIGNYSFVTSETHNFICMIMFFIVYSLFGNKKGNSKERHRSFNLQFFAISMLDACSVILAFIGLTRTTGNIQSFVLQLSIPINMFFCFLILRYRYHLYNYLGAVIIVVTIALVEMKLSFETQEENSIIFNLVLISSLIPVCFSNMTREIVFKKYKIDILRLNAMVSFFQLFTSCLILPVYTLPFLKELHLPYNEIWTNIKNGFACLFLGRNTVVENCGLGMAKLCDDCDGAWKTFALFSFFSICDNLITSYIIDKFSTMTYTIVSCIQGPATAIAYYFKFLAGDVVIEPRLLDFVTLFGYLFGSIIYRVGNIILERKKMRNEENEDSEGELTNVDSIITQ
Summary of the method: as §1

PfCRT^3D7 = PfCRT^3D7 (Plasmodium falciparum, UniProt Q8IBZ9); assay: cell-based; details: PfCRT3D7 oocytes, normalised to oocyte type control
Sequence of PfCRT^3D7 (Q8IBZ9 59-398): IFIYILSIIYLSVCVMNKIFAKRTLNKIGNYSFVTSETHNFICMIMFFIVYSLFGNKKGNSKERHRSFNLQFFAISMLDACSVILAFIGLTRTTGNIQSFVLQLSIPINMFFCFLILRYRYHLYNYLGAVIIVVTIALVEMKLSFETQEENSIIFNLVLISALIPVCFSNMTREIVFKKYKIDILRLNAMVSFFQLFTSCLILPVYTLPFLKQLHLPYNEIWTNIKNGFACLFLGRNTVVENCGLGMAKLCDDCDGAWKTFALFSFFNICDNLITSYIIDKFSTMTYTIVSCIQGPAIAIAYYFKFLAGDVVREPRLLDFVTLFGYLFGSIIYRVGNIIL
Summary of the method: (§2)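 Oocytes (ten per treatment, ≥4 independent frogs/days) were preloaded by injecting VF-6 in 25 nL ND96 at pH 5.0, 5.5, 6.0 or 7.0, or Na^+-free choline buffer, then uptake run 1.5 h, 27.5 °C, ND96 pH 5.5 by default. Internal concentrations assumed ~400 nL oocyte volume.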

PfCRT^Ecu1110 [3] = molecular target: T1, PfCRT^Ecu1110; assay: cell-based; details: for PfCRT-mediated [3H]CQ transport, trans-stimulation (% PfCRTEcu1110 control): PfCRTEcu1110 oocytes, normalised to oocyte type control; for [3H]CQ transport (% PfCRTDd2 control), trans-stimulation, PfCRTEcu1110: PfCRT-mediated component (background subtracted), sheet title says normalised to PfCRTDd2 control, mean ± SEM, SEM
Summary of the method: as §2

PfCRT^Dd2 [4] = molecular target: T2, PfCRT^Dd2; assay: cell-based; details: for PfCRT-mediated [3H]CQ transport, trans-stimulation (% PfCRTDd2 control): PfCRTDd2 oocytes, normalised to oocyte type control; for [3H]CQ transport (% PfCRTDd2 control), trans-stimulation, PfCRTDd2: PfCRT-mediated component (background subtracted), mean ± SEM, SEM
Summary of the method: as §2

[5] = [test solute]i = 5 mM (intracellular)
[6] = [test solute]i = 45 mM (intracellular; 30 mM for some solutes due to solubility)
[7] = [test solute]i = 5 mM (injected)
[8] = [test solute]i = 45 mM (30 mM for some solutes due to solubility)

Substance	PfCRT-mediated [3H]CQ transport, cis-inhibition (% PfCRTEcu1110 control) (PfCRT^Ecu1110 [1]; [test solute] = 0.5 mM)	PfCRT-mediated [3H]CQ transport, cis-inhibition (% PfCRTEcu1110 control) (PfCRT^Ecu1110 [1]; [test solute] = 1 mM)	PfCRT-mediated [3H]CQ transport, cis-inhibition (% PfCRTEcu1110 control) (PfCRT^Ecu1110 [1]; [test solute] = 2 mM)	[3H]CQ transport (% PfCRTEcu1110 control), cis-inhibition, PfCRTEcu1110 (PfCRT^Ecu1110 [1]; [test solute] = 1 mM)	[3H]CQ transport (% PfCRTEcu1110 control), cis-inhibition, PfCRTEcu1110 (PfCRT^Ecu1110 [1]; [test solute] = 2 mM)	PfCRT-mediated [3H]CQ transport, cis-inhibition (% PfCRTDd2 control) (PfCRT^Dd2 [2]; [test solute] = 0.5 mM)	PfCRT-mediated [3H]CQ transport, cis-inhibition (% PfCRTDd2 control) (PfCRT^Dd2 [2]; [test solute] = 1 mM)	PfCRT-mediated [3H]CQ transport, cis-inhibition (% PfCRTDd2 control) (PfCRT^Dd2 [2]; [test solute] = 2 mM)	PfCRT-mediated [3H]CQ transport, trans-stimulation (% PfCRT3D7 control) (PfCRT^3D7; [5])	PfCRT-mediated [3H]CQ transport, trans-stimulation (% PfCRT3D7 control) (PfCRT^3D7; [6])	PfCRT-mediated [3H]CQ transport, trans-stimulation (% PfCRTEcu1110 control) (PfCRT^Ecu1110 [3]; [5])	PfCRT-mediated [3H]CQ transport, trans-stimulation (% PfCRTEcu1110 control) (PfCRT^Ecu1110 [3]; [6])	[3H]CQ transport (% PfCRTDd2 control), trans-stimulation, PfCRTEcu1110 (PfCRT^Ecu1110 [3]; [7])	[3H]CQ transport (% PfCRTDd2 control), trans-stimulation, PfCRTEcu1110 (PfCRT^Ecu1110 [3]; [8])	PfCRT-mediated [3H]CQ transport, trans-stimulation (% PfCRTDd2 control) (PfCRT^Dd2 [4]; [5])	PfCRT-mediated [3H]CQ transport, trans-stimulation (% PfCRTDd2 control) (PfCRT^Dd2 [4]; [6])	[3H]CQ transport (% PfCRTDd2 control), trans-stimulation, PfCRTDd2 (PfCRT^Dd2 [4]; [7])	[3H]CQ transport (% PfCRTDd2 control), trans-stimulation, PfCRTDd2 (PfCRT^Dd2 [4]; [8])	[3H]CQ transport (% PfCRTEcu1110 control), cis-inhibition, PfCRTEcu1110 (PfCRT^Ecu1110 [1]; [test solute] = 0.5 mM)
DPENFR [DR-6]	38 ± 1.3 % PfCRTEcu1110 control	35 ± 4.2 % PfCRTEcu1110 control	27 ± 0.1 % PfCRTEcu1110 control	11 ± 0.1 % PfCRTEcu1110 control	9.0 ± 0.02 % PfCRTEcu1110 control	38 ± 0.3 % PfCRTDd2 control	30 ± 1.0 % PfCRTDd2 control	17 ± 0.3 % PfCRTDd2 control	137 ± 4.6 % PfCRT3D7 control	188 ± 5.7 % PfCRT3D7 control	118 ± 0.6 % PfCRTEcu1110 control	127 ± 4.2 % PfCRTEcu1110 control	36 ± 1.4 % PfCRTEcu1110 control	38 ± 1.5 % PfCRTEcu1110 control	100 ± 3.7 % PfCRTDd2 control	112 ± 4.3 % PfCRTDd2 control	100 ± 3.7 % PfCRTDd2 control	112 ± 4.3 % PfCRTDd2 control	–
PPVQA [PA-5]	59 ± 2.1 % PfCRTEcu1110 control	41 ± 1.4 % PfCRTEcu1110 control	28 ± 0.5 % PfCRTEcu1110 control	13 ± 0.5 % PfCRTEcu1110 control	9.0 ± 0.05 % PfCRTEcu1110 control	39 ± 1.1 % PfCRTDd2 control	31 ± 3.1 % PfCRTDd2 control	19 ± 1.2 % PfCRTDd2 control	133 ± 4.6 % PfCRT3D7 control	178 ± 5.2 % PfCRT3D7 control	91 ± 5.7 % PfCRTEcu1110 control	97 ± 4.4 % PfCRTEcu1110 control	28 ± 1.7 % PfCRTEcu1110 control	29 ± 1.4 % PfCRTEcu1110 control	100 ± 4.2 % PfCRTDd2 control	95 ± 5.6 % PfCRTDd2 control	100 ± 4.2 % PfCRTDd2 control	95 ± 5.6 % PfCRTDd2 control	19 ± 0.3 % PfCRTEcu1110 control
KEFTPPVQA [KA-9]	48 ± 2.1 % PfCRTEcu1110 control	41 ± 2.1 % PfCRTEcu1110 control	30 ± 1.1 % PfCRTEcu1110 control	–	–	48 ± 2.0 % PfCRTDd2 control	32 ± 2.1 % PfCRTDd2 control	7 ± 0.1 % PfCRTDd2 control	130 ± 2.2 % PfCRT3D7 control	160 ± 3.9 % PfCRT3D7 control	98 ± 2.8 % PfCRTEcu1110 control	98 ± 2.0 % PfCRTEcu1110 control	–	–	98 ± 2.2 % PfCRTDd2 control	98 ± 1.7 % PfCRTDd2 control	–	–	–
DTSLKPIS [DS-8]	57 ± 2.1 % PfCRTEcu1110 control	42 ± 3.1 % PfCRTEcu1110 control	28 ± 1.3 % PfCRTEcu1110 control	–	–	40 ± 2.2 % PfCRTDd2 control	28 ± 0.6 % PfCRTDd2 control	19 ± 0.3 % PfCRTDd2 control	135 ± 3.7 % PfCRT3D7 control	180 ± 3.4 % PfCRT3D7 control	127 ± 2.8 % PfCRTEcu1110 control	140 ± 4.1 % PfCRTEcu1110 control	–	–	95 ± 3.1 % PfCRTDd2 control	112 ± 1.2 % PfCRTDd2 control	–	–	–
EFTPPVQ [EQ-7]	44 ± 1.4 % PfCRTEcu1110 control	32 ± 2.4 % PfCRTEcu1110 control	22 ± 2.9 % PfCRTEcu1110 control	10 ± 0.5 % PfCRTEcu1110 control	8.0 ± 0.03 % PfCRTEcu1110 control	40 ± 1.1 % PfCRTDd2 control	28 ± 0.2 % PfCRTDd2 control	17 ± 1.1 % PfCRTDd2 control	136 ± 4.2 % PfCRT3D7 control	188 ± 4.7 % PfCRT3D7 control	129 ± 4.5 % PfCRTEcu1110 control	136 ± 2.7 % PfCRTEcu1110 control	39 ± 1.5 % PfCRTEcu1110 control	41 ± 1.8 % PfCRTEcu1110 control	96 ± 3.3 % PfCRTDd2 control	112 ± 3.2 % PfCRTDd2 control	96 ± 3.3 % PfCRTDd2 control	112 ± 3.2 % PfCRTDd2 control	14 ± 0.6 % PfCRTEcu1110 control
